Results as given in publication PMC12557380, “Optimization of 2,8-Diaryl-1,5-naphthyridines as Plasmodium falciparum Phosphatidylinositol 4‑Kinase Inhibitors with Improved ADME Profiles and In Vivo Efficacy” (Journal of Medicinal Chemistry, 2025).
Converted amounts (≈) assume the structure as drawn. Like-named read-outs stand apart in the source and are kept apart here.

Experiments:
[1] = test system: P. falciparum NF54 (PfNF54) parasites; test: In vitro antiplasmodial asexual blood stage activity, pLDH assay, NF54; format: cell-based, Plasmodium falciparum; conditions: Plasmodium falciparum
[2] = test system: P. falciparum K1 (PfK1) strain; test: In vitro antiplasmodial asexual blood stage activity, pLDH assay, K1; format: cell-based; conditions: Plasmodium falciparum
[3] = test system: Chinese hamster ovary cells; test: Cytotoxicity, MTT assay, CHO; format: cell-based; conditions: Cricetulus griseus, read-out: CHO IC50
[4] = test system: PI4K S743F + H1484Y and PI4K S1320L + L1418F mutant lines; conditions: 72 h, SYBR green I
[5] = for in vivo mouse CLb: total body clearance from whole blood, iv 3 mg/kg; for in vivo mouse CLu: unbound blood clearance from CLb and plasma protein binding
in vivo = conditions: male, Balb/C, mouse, po, 10 mg/kg
physchem [6] = conditions: 25 °C, pH 6.5, aqueous buffer, thermodynamic from solid
physchem [7] = conditions: n-octanol/phosphate buffer (1:1), pH 7.4
in vitro [8] = conditions: human, Caco-2
in vitro [9] = conditions: human, pH 7.4
in vitro [10] = conditions: mouse, pH 7.4
HepG2 cells = test: Cytotoxicity, MTT assay, HepG2; format: cell-based
[11] = test system: L6 rat myoblast cell line; test: Cytotoxicity, L6; format: cell-based; conditions: read-out: L6 IC50
PfNF54 = conditions: cited from earlier work
P. vivax PI4Kβ (PvPI4K) = conditions: cited from earlier work
Pf3D7 = conditions: read-out: Pf3D7 IC50; cited from earlier work
[12] = test system: P. falciparum PI4K cKD line; test: microbe, parasite or virus in culture; conditions: Plasmodium falciparum
PfDd2 = conditions: read-out: PfDd2 IC50; reported inhibitors, Figure 1; cited from earlier work
[13] = test system: panel of the drug-resistant strains of P. falciparum; conditions: Figure 1, read-out: PfIC50; cited from earlier work
HsPI4K = conditions: reported inhibitors, Figure 1; cited from earlier work
HsPI3Kα = HsPI3Kα (Homo sapiens, UniProt P42336); test: Human lipid kinase screening, ADP-Glo, PI3Kα; format: biochemical; conditions: IC50/PvPI4K IC50
HsPI3Kα, sequence (P42336 whole entry): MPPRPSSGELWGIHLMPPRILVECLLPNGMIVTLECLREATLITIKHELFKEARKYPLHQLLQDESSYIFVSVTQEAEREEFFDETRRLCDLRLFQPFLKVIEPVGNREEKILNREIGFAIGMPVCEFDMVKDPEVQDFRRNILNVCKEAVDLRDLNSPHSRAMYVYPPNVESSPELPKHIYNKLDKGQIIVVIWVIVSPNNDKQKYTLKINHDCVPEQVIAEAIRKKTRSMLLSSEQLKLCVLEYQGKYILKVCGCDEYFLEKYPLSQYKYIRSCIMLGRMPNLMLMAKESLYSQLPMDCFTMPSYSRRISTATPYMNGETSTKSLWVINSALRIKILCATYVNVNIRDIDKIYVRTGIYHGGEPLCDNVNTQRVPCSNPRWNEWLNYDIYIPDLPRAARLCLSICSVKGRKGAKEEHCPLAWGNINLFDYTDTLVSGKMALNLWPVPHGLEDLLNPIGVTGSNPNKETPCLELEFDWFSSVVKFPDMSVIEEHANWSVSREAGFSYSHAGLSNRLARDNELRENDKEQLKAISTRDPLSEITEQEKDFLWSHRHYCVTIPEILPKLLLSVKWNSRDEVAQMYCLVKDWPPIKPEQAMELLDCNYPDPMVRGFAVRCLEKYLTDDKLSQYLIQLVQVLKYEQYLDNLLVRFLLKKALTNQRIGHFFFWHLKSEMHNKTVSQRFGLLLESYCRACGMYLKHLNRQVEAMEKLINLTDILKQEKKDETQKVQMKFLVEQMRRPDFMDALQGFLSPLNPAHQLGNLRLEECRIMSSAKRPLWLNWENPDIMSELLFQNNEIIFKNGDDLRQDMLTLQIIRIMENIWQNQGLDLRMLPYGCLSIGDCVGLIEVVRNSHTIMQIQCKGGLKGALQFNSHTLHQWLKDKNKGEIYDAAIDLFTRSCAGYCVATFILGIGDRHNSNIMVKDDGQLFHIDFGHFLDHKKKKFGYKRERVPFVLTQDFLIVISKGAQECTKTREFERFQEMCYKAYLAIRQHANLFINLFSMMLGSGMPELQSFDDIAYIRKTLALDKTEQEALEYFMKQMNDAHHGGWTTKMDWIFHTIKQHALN
HsPI3Kα, sequence (P27986 whole entry partner): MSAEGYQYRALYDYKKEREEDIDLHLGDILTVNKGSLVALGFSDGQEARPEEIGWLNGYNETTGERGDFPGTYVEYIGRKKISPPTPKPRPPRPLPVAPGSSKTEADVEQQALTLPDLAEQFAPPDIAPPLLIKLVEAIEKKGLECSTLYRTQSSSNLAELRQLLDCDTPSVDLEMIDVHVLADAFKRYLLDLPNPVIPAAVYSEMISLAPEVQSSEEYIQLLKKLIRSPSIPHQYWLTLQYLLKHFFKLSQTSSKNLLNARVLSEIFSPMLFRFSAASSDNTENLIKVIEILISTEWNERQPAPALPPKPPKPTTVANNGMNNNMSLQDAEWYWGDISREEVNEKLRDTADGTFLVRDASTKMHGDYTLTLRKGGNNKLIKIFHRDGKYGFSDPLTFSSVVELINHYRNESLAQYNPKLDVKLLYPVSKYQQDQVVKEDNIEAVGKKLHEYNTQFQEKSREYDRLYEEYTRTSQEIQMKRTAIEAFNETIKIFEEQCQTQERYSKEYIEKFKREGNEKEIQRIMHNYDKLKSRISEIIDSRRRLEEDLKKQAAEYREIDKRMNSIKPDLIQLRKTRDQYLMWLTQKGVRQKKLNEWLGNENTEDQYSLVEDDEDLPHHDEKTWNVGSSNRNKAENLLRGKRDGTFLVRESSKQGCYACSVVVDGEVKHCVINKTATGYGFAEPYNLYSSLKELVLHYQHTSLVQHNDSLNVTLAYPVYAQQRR

HsPI4Kβ = HsPI4Kβ (Homo sapiens, UniProt Q9UBF8); test: Human lipid kinase screening, ADP-Glo, PI4Kβ; format: biochemical; conditions: IC50/PvPI4K IC50
HsMINK1 = HsMINK1 (Homo sapiens, UniProt Q8N4C8); test: Human kinase screening, ADP-Glo, MINK1; format: biochemical; conditions: IC50/PvPI4K IC50
HsMINK1, sequence (Q8N4C8 whole entry): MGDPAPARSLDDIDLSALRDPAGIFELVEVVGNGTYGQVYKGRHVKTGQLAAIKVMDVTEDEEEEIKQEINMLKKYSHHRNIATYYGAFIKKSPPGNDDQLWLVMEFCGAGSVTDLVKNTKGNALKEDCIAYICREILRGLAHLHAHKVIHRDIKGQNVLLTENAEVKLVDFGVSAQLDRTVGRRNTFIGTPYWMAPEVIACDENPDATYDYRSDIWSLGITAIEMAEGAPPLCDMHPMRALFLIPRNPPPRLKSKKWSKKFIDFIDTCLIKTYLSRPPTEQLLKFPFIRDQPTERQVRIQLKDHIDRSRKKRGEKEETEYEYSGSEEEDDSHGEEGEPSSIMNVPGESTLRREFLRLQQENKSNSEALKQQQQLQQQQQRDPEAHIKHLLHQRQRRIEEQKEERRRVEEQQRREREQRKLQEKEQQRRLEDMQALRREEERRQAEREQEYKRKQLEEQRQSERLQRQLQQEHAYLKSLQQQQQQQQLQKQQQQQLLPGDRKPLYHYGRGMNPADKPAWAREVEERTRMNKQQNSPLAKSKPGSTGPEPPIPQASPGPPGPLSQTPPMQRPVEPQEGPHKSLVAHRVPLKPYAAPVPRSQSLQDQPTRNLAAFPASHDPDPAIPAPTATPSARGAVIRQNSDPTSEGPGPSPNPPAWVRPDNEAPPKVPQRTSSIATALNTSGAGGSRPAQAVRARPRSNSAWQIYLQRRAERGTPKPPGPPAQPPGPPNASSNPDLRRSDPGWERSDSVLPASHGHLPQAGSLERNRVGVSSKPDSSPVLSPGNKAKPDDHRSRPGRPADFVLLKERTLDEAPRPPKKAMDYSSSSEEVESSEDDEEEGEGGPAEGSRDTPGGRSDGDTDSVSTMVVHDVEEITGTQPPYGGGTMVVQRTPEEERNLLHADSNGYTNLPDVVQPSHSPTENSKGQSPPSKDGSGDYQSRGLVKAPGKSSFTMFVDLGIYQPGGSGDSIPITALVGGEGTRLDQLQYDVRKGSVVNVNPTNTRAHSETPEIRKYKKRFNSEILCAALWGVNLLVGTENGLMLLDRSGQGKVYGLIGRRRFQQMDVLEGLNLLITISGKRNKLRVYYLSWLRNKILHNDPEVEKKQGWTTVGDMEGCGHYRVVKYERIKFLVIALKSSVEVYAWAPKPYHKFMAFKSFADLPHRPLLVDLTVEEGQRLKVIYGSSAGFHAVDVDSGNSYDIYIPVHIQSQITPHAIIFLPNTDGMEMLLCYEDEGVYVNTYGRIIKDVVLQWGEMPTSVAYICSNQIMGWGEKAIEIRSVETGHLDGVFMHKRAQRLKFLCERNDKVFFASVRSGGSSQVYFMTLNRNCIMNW

HsMAP4K4 = HsMAP4K4 (Homo sapiens, UniProt O95819); test: Human kinase screening, ADP-Glo, MAP4K4; format: biochemical; conditions: IC50/PvPI4K IC50
HsMAP4K4, sequence (O95819 whole entry): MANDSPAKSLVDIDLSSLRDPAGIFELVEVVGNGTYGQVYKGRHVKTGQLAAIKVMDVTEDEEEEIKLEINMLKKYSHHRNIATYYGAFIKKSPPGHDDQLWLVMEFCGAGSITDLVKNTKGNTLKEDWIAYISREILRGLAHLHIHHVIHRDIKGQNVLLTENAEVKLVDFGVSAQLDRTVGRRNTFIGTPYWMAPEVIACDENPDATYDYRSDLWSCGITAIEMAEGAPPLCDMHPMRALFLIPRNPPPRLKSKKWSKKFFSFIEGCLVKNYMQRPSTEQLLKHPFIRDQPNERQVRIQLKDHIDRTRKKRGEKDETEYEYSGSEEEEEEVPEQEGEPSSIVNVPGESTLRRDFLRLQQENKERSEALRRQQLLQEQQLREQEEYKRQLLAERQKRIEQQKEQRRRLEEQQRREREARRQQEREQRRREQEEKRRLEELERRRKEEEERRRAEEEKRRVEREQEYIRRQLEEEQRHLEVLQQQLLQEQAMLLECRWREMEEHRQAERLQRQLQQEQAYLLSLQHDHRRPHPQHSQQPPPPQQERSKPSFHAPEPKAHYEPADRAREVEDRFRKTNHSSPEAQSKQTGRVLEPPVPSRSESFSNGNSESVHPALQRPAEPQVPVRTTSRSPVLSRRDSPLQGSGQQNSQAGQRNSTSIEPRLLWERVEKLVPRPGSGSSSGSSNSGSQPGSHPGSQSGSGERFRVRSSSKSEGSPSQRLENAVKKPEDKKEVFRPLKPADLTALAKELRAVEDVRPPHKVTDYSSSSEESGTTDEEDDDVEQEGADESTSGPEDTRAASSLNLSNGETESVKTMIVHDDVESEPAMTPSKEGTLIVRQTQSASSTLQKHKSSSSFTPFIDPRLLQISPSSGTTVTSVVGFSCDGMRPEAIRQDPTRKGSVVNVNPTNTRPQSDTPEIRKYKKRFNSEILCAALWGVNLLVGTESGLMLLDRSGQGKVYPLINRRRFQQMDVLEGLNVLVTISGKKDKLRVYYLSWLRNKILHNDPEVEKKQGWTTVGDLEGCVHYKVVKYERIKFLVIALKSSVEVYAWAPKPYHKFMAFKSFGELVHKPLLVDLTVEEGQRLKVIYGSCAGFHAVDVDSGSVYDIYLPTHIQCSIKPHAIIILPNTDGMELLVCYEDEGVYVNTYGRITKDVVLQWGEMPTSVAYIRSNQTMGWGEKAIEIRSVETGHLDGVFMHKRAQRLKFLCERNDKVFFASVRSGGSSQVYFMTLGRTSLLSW

[14] = NF54, 72 h, pLDH assay, 72 h, read-out: Pf ABS IC50 NF54
[15] = NF54, mean, supplement, read-out: PfNF54 IC50
[16] = K1, pLDH assay, 72 h, read-out: Pf ABS IC50 K1
[17] = NF54, 72 h, read-out: Pf ABS IC50 NF54
[18] = K1, 72 h, read-out: Pf ABS IC50 K1
[19] = Homo sapiens, HepG2, read-out: HepG2 IC50
[20] = read-out: IC50 Mean + SD, +aTc, mean of N=3, +aTc
[21] = read-out: IC50 Mean + SD, no aTc, mean of N=3, no aTc
[22] = read-out: IC50 for PfPI4K, +aTc, N=1, +aTc
[23] = read-out: IC50 for PfPI4K, +aTc, N=2, +aTc
[24] = read-out: IC50 for PfPI4K, +aTc, N=3, +aTc
[25] = read-out: IC50 for PfPI4K, no aTc, N=1, no aTc (knockdown)
[26] = read-out: IC50 for PfPI4K, no aTc, N=2, no aTc (knockdown)
[27] = read-out: IC50 for PfPI4K, no aTc, N=3, no aTc (knockdown)

Compound	IC50 [1, 14]	IC50 [1, 15]	IC50 ([3]; one biological replicate)	in vivo mouse CLb [5]	in vivo mouse CLu [5]	bioavailability (in vivo)	solubility thermodynamic at 20 h (physchem [6]; aqueous solution)	logD at 3 h (physchem [7])	Papp A→B (in vitro [8])	CLint scaled at 1 µM (in vitro [9]; microsomes)	CLint scaled at 1 µM (in vitro [9]; pooled human liver microsomes)	CLint scaled at 1 µM (in vitro [10]; microsomes)	CLint scaled at 1 µM (in vitro [10]; mouse liver microsomes)	IC50 [11]	further results
CS(=O)(=O)c1cccc(-c2ccc3nccc(-c4ccc(C(=O)N5CCC(O)C5)cc4)c3n2)c1 (stereo not shown) [Compound 37, (3-Hydroxypyrrolidin-1-yl)-[4-[6-(3-methylsulfonylphenyl)-1,5-naphthyridin-4-yl]phenyl]methanone]	32 nM	32.2 nM	24000 nM	181 mL/min/kg	362 mL/min/kg	11%	60 µM (≈ 28.4 µg/mL)	1.92	1.5 ×10⁻⁶ cm/s	< 13.4 mL/min/kg	< 27.3 mL/min/kg	< 45.7 mL/min/kg	< 93.2 mL/min/kg		IC50 [2, 16]: 96 nM; IC50 shift against PI4K mutant lines relative to parent Dd2 [4]: showed IC50 shifts; efflux ratio (in vitro [8]): 32
NS(=O)(=O)c1cccc(-c2ccc3nccc(-c4ccnc(C(F)(F)F)c4)c3n2)c1 [Compound 1]														35000 nM	IC50 [1, 17]: 63 nM; IC50 [2, 18]: 86 nM; IC50 [3]: 6000 nM; IC50 (HepG2 cells; [19]): 48000 nM; IC50 (PfNF54): 63 nM; IC50 (P. vivax PI4Kβ (PvPI4K)): 6 nM; IC50 (Pf3D7): 140 nM
CNC(=O)Cc1cccc(-c2ccc3nccc(-c4ccc(C(C)(C)O)nc4)c3n2)c1 [Compound 27, 2-[3-[8-[6-(2-Hydroxypropan-2-yl)pyridin-3-yl]-1,5-naphthyridin-2-yl]phenyl]-N-methylacetamide]														38000 nM	IC50 [1, 17]: 51 nM; IC50 ([1]; NF54, read-out: PfNF54 IC50): 50.7 nM; IC50 ([1]; NF54, read-out: free IC50): 40 nM; IC50 [2, 18]: 81 nM; IC50 ([2]; K1, read-out: PfK1 IC50): 81.2 nM; IC50 [3]: 31000 nM; IC50 (HepG2 cells; [19]): 6000 nM
CS(=O)(=O)c1cccc(-c2ccnc3ccc(N4CCC(O)CC4)nc23)c1 [Compound 21, 1-[8-(3-Methylsulfonylphenyl)-1,5-naphthyridin-2-yl]piperidin-4-ol]	32 nM		49000 nM	80 mL/min/kg	533 mL/min/kg	37%	150 µM (≈ 57.5 µg/mL)	2.27	18 ×10⁻⁶ cm/s	< 13.4 mL/min/kg	< 17.6 mL/min/kg	< 45.7 mL/min/kg	< 60.1 mL/min/kg	8000 nM	IC50 (HepG2 cells; Homo sapiens, HepG2; read-out: HepG2 IC50): > 50000 nM; IC50 [12, 20]: 84.5 nM; IC50 [12, 21]: 14 nM; IC50 [12, 22]: 131 nM; IC50 [12, 23]: 68.9 nM; IC50 [12, 24]: 53.6 nM; IC50 [12, 25]: 21.7 nM; IC50 [12, 26]: 10.5 nM; IC50 [12, 27]: 9.7 nM
Cn1ccc(-c2ccc3nccc(-c4ccc(C(C)(C)O)nc4)c3n2)cc1=O [Compound 24, 4-[8-[6-(2-Hydroxypropan-2-yl)pyridin-3-yl]-1,5-naphthyridin-2-yl]-1-methylpyridin-2-one]	36 nM	35.9 nM	12000 nM	110 mL/min/kg	379 mL/min/kg	10%	175 µM (≈ 65.2 µg/mL)	1.98		< 13.4 mL/min/kg	< 17.4 mL/min/kg	< 45.7 mL/min/kg	< 59.4 mL/min/kg		IC50 ([2]; K1, mean, supplement, read-out: PfK1 IC50): 107 nM; IC50 [2, 16]: 110 nM
Cn1ccc(-c2ccc3nccc(-c4cccc(S(C)(=O)=O)c4)c3n2)cc1=O [Compound 19, 1-Methyl-4-[8-(3-methylsulfonylphenyl)-1,5-naphthyridin-2-yl]pyridin-2-one]	16 nM		47000 nM	102 mL/min/kg	300 mL/min/kg	27%		1.46	14 ×10⁻⁶ cm/s	< 13.4 mL/min/kg	< 19.7 mL/min/kg	< 45.7 mL/min/kg	< 67.2 mL/min/kg		solubility thermodynamic at 20 h (physchem [6]): 40 µM (≈ 15.7 µg/mL); IC50 [12, 20]: 36 nM; IC50 [12, 21]: 4.3 nM; IC50 [12, 22]: 48.9 nM; IC50 [12, 23]: 20.2 nM; IC50 [12, 24]: 39.2 nM; IC50 [12, 25]: 5.2 nM; IC50 [12, 26]: 2.5 nM; IC50 [12, 27]: 5.1 nM
COc1ccc2c3c([nH]c2c1)[C@H](CO)N(C(C)=O)CC31CCN(C(=O)Nc2ccccc2F)CC1 [BRD73842]															IC50 (PfDd2): 69 nM
CNC(=O)c1ccc(-c2cnc3cnc(C(=O)N(C)c4ccc(Cl)cc4)cn23)cc1 [KDU691]															IC50 [13]: 27 to 70 nM; IC50 (P. vivax PI4Kβ (PvPI4K)): 1.6 nM; IC50 (HsPI4K): 7900 nM
CNC(=O)c1cncc(-c2cnc(Cl)c(NS(=O)(=O)c3ccccc3)c2)c1 [CHMFL-PI4K-127, 6′-Chloro-N-Methyl-5′-(Phenylsulfonamido)-[3,3′-Bipyridine]-5-Carboxamide]															IC50 [13]: 24 to 47 nM; IC50 (P. vivax PI4Kβ (PvPI4K); reported inhibitors, Figure 1): 0.9 nM; IC50 (HsPI4K): 430 nM
CS(=O)(=O)c1cccc(-c2ccnc3ccc(N4CCCC(C(N)=O)C4)nc23)c1 (stereo not shown) [Compound 22, 1-[8-(3-Methylsulfonylphenyl)-1,5-naphthyridin-2-yl]piperidine-3-carboxamide]	67 nM	67.2 nM	> 50000 nM												HsPI3Kα SI (HsPI3Kα): 60; HsPI4Kβ SI (HsPI4Kβ): 56; HsMINK1 SI (HsMINK1): > 4000; HsMAP4K4 SI (HsMAP4K4): > 4000; solubility thermodynamic at 20 h (physchem [6]): 10 µM (≈ 4.1 µg/mL)
